Results published in patent US11458138B2 (Novartis AG, priority 2017, dated 2022).

How the values were obtained:
[1] = tested on: phospho-YAP (ser127) in human CECs; experiment: YAP phosphorylation by western blot in CECs; format: cell-based; settings: 10 micromolar, 1 hour
Procedure: Cells obtained as described in Example C1 were detached from the culture dish with 1 mg/ml collagenase for 15 minutes at 37° C., cell suspensions were rinsed by centrifugation and plated in corneal endothelial cell culture medium (human endothelial SF medium (Invitrogen) with human serum) in 6-well plates (Corning) and cultured for 2 to 4 days. The medium was then replaced by fresh corneal endothelial cell culture medium (human endothelial SF medium (Invitrogen) with human serum) supplemented with LATS inhibitor, compound example no. […] Cells were cultured under these conditions for 1 hour at 37° C. in 5% CO2.
Cell pellets were obtained by trypsin dissociation and centrifugation and washed with PBS. The pellets were lysed with […] of RIPA lysis buffer containing protease inhibitor cocktail (Life Technologies) for 30 minutes, with vortexing every 10 minutes. The cell debris were then pelleted at 4° C. for 15 minutes at 14k rpm and the protein lysate was collected. Protein concentration was quantified using a micro BCA kit (Pierce). Fifteen (15) micrograms of total protein was loaded in each well of 4-20% TGX gels (BioRad) and Western blotting was performed according to the manufacturer's instructions. […] Membranes were stained with HRP-conjugated secondary antibodies, rinsed and imaged using a ChemiDoc system (Biorad) according to the manufacturer's instructions.

[2] = tested on: YAP translocation in Corneal Endothelial Cells (CECs); experiment: YAP nuclear translocation in Corneal Endothelial Cells (CECs); format: cell-based, human
[3] = tested on: human limbal stem cells (LSCs); experiment: Human limbal stem cell population expansion, immunohistochemical observation of p63alpha; format: cell-based; settings: for LSC colony formation and p63alpha expression: 10 micromolar, 6 days without passaging
Procedure: Cells obtained as described in Example B1 were plated in 24-well plates (Corning) in limbal epithelium cell culture medium (DMEM F12 supplemented with 10% human serum and 1.3 mM calcium chloride) supplemented with LATS inhibitor compound example no. […] Cells were first cultured at 37° C. in 5% CO2 for 6 days after isolation without passaging (FIGS. 2A, 2B and 2C).
To evaluate the ability of the compounds to enable LSC expansion after two passages, LSCs were passaged and cultured for two weeks in the presence of compound example 49 to enable expansion (FIG. 2D). Limbal stem cells (LSCs) were passaged by treating cultures with Accutase for 10 minutes at 37° C., rinsing the cell suspension by centrifugation and plating cells in fresh LSC culture medium supplemented with LATS inhibitor compound example 49.
In order to observe that the expanded cell population expressed p63alpha, this was measured by immunohistochemistry as follows. Cell cultures were fixed with 4% PFA for 20 minutes, permeabilized and blocked in a blocking solution of 0.3% Triton X-100 (Sigma-Aldrich) and 3% donkey serum in PBS for 30 minutes. Cells were then labeled with primary antibody in the blocking solution for 12 hours at 4° C. Primary antibody used was p63alpha from Cell Signalling. Samples were washed in PBS three times and donkey-raised secondary antibody Alexa Fluor 488 (Molecular Probes) at 1:500 dilution were applied for 30 minutes at room temperature. Cells were counter-stained with a human nuclear antigen antibody (Millipore) at a 1:500 dilution in order to label all cells in the culture and confirm their human identity. […] Fluorescence was observed using a Zeiss LSM 880 confocal microscope.

[4] = tested on: YAP phosphorylation in limbal stem cells (LSCs); experiment: YAP dephosphorylation in LSCs by Western blot; format: cell-based, human; settings: within one hour of treatment
[5] = tested on: Corneal Endothelial Cells (CECs); experiment: CEC proliferation, Incucyte confluence by real-time live-cell analysis; format: cell-based, human; settings: vs vehicle DMSO
Source text: FIG. 16: CECs grown in presence or absence of LATS inhibitors. An Incucyte system (Essen Biosciences) was used to measure CEC confluence by real-time quantitative live-cell analysis over a time course. Compound ex. 49 (black squares) and ex.
(§1) If it is desired to measure the cell number or expansion of the cell population, this may be done for example by taking an aliquot and performing immunocytochemistry (e.g. to count nuclei stained with Sytox Orange) or by live cell imaging under brightfield microscope to count the number of cells or by performing real-time quantitative live-cell analysis of cell confluence at various time points during the cell population expansion phase of the method according to the invention.

[6] = tested on: human corneal endothelial cells (CECs); experiment: Human corneal endothelial cell population expansion, cell confluence (Incucyte); format: cell-based; settings: 10 micromolar, 10 days
Procedure: Cells obtained as described in Example C1 were detached from the culture dish with 100 microlitres of Accutase (ThermoFisher) for 10 minutes at 37° C., cell suspensions were rinsed by centrifugation and plated in corneal endothelial cell culture medium (human endothelial SF medium (Invitrogen) with human serum) in 6-well plates (Corning) supplemented with LATS inhibitor compound example no. […] Cells were cultured at 37° C. in 5% CO2.
To measure cell proliferation, an Incucyte machine was used following the manufacturer's instructions (Essen Biosciences) to perform real-time quantitative live-cell analysis of cell confluence every 3 hours for 10 days.

limbal stem cells (LSCs) [7] = experiment: LSC population expansion, p63-alpha immunolabelling and cell count; format: cell-based, human; settings: for LSC colony formation and p63alpha expression: up to 6 days in culture, vs growth medium and DMSO
Source text: FIG. 2A: In the presence of growth medium and DMSO, only a few isolated cells attach to the culture dish and survive up to 6 days. Most cells expressed the human nuclear marker, but few expressed p63alpha. FIGS. 2B and 2C: In contrast, in the presence of LATS inhibitors: compound example no. 49 and example no. […] FIG. 2D: Passaging cells and culturing them in the presence of LATS inhibitor compound example no.
as §1
The Sytox Orange assay may be performed according to standard protocols known in the art. In brief, after cells have attached to the cell culture dish (typically 24 h after cell plating), the cells are fixed in paraformaldehyde. The cells are then permeabilized (e.g. using a solution of 0.3% Triton X-100) and they are then labeled in a solution of Sytox Orange (e.g. using 0.5 micromolar of Sytox Orange in PBS). The number of nuclei stained with Sytox Orange per surface area are then counted under a Zeiss epifluorescence microscope.
(2) The cell preparation comprises more than 6% p63alpha positive cells. Preferably the cell preparation comprises more than 10%, 20%, 30%, 40%, 50%, 60%, 70%, 80% or 90% p63alpha positive cells. In a preferred embodiment the cell preparation comprises more than 95% p63alpha positive cells. The percentage of p63alpha cells may be measured by immunohistochemistry or FACS.

limbal stem cells (LSCs) [8] = experiment: Differentiation of expanded LSCs into corneal epithelium cells (p63alpha / keratin 12); format: cell-based, human; settings: transferred to conditions that enable differentiation
Source text: Shown are views where the transition from the p63alpha-positive cell identity to the keratin-12 identity are occurring.
These characteristics can be observed by immunohistochemistry or FACS.

[9] = tested on: Corneal Endothelial Cells (CECs); experiment: ZO-1 immunolabelling of expanded CECs; format: cell-based, human; settings: vs vehicle DMSO
Source text: CECs proliferated in the presence of the vehicle alone (DMSO) show signs of polymegatism characteristic of dysfunctional CECs (FIG. 18a).
(2) The cells are able to form tight junctions. This may be checked by a standard technique known in the art, immunofluorescence staining of tight-junction marker Zonula Occludens-1 (ZO-1).
(3) The cells are able to be regularly arranged in the cell layer. This may be checked by a standard technique known in the art, immunofluorescence staining of tight-junction marker Zonula Occludens-1 (ZO-1).

| Compound | YAP phosphorylation levels in human CECs (western blot) [1] | translocation of YAP into the nucleus in CECs [2] | LSC colony formation and p63alpha expression [3] | LSC population expansion after passaging ([3]; passaged and cultured two weeks) | YAP dephosphorylation in LSCs [4] | CEC proliferation (confluence over time) [5] | Proliferation of human CECs (percentage confluence over time) [6] | LSC population expansion after passaging (limbal stem cells (LSCs) [7]; passaged cells cultured for two weeks) | LSC colony formation and p63alpha expression (limbal stem cells (LSCs) [7]) | differentiation of expanded LSCs into corneal epithelium cells (keratin 12) (limbal stem cells (LSCs) [8]) | tight junctions, cell size and morphology of CECs (ZO-1) [9] |
| --- | --- | --- | --- | --- | --- | --- | --- | --- | --- | --- | --- |
| CC(C)(O)CC(C)(C)Nc1nc(-c2ccncc2)nc2cnccc12 [Example 49, 2,4-dimethyl-4-{[2-(pyridin-4-yl)pyrido[3,4-d]pyrimidin-4-yl]amino}pentan-2-ol] | reduction in YAP phosphorylation levels in human CECs | induce translocation of YAP into the nucleus | the cells formed colonies and expressed p63alpha | enabled cell population expansion and the formation of confluent cultures expressing p63alpha | induce YAP dephosphorylation | induced strong CEC proliferation | could activate proliferation in these cells | enabled cell population expansion and the formation of confluent cultures expressing p63alpha | formed colonies and expressed p63alpha | can differentiate into corneal epithelium cells | form tight junctions, an endothelial structure and retain a normal cell size and morphology |
| Cc1n[nH]cc1-c1nc(NC2(C)CC2)c2ccncc2n1 [Example 133, 2-(3-methyl-1H-pyrazol-4-yl)-N-(1-methylcyclopropyl)pyrido[3,4-d]pyrimidin-4-amine] | reduction in YAP phosphorylation levels in human CECs | induce translocation of YAP into the nucleus | the cells formed colonies and expressed p63alpha |  | induce YAP dephosphorylation | induced strong CEC proliferation | could activate proliferation in these cells |  | formed colonies and expressed p63alpha |  |  |
| CC(C)(C)Nc1cc(-c2ccncc2)nc2cnccc12 [Example 261, N-(tert-butyl)-2-(pyridin-4-yl)-1,7-naphthyridin-4-amine] |  |  |  |  |  |  |  |  |  | can differentiate into corneal epithelium cells |  |
